# Assays:
# [1] = Elution of antibiotic from pellets or flakes into PBS at 37° C., Fluorescence Polarization Immunoassay; format: physicochemical; details: from rapidly resorbing pellets loaded with 4% antibiotic, FIG. 2
# Method: Elution was characterized by placing groups of eight pellets or the flakes of eight pellets (n≧3) in 20 ml phosphate buffered saline (PBS) in a 37° C. water bath. At specified times (t=1, 4, 8, 12, 24, 36, 48, 72, 96, 120, 144, 168, 240 hours), aliquots were removed and frozen at -40° C. At each time interval, the pellets were removed and placed in 20 ml fresh PBS. The amount of antibiotic in the eluates was determined (μg/ml) using a Florescence Polarization Immunoassay ([…], Abbott Laboratories, Abbott Park, Ill.). Testing was repeated for three batches of pellets.
# [2] = system: Pseudomonas aeruginosa strain ATCC 27317; assay: Biological activity testing of eluates and antibiotic dilutions, growth in TSB, A530; format: cell-based; details: P. aeruginosa ATCC 27317, observed
# Method: Pseudomonas aeruginosa strain ATCC 27317 was used for biological activity testing of AmikacinTM and GentamicinTM eluates. A clinical isolate of Staphylococcus aureus Cowan I strain was used to assess activity of VancomycinTM eluates. The eluate having the lowest concentration for each antibiotic at each of the specified time points was used in the biological activity assay. P. aeruginosa or S. aureus was grown overnight at 37° C. in Trypticase soy broth (TSB). Conical tubes were prepared with 1.75 ml of TSB and 200 μl of antibiotic dilutions (AmikacinTM: 0-640 μg/ml, GentamicinTM: 0-2560 μg/ml, VancomycinTM: 0-160 μg/ml), or 200 μl eluate samples, or 200 μl buffer. All tubes except blanks were inoculated with 50 μl of 1:50 dilution of bacteria. Blanks were supplanted with an additional 50 μl of TSB instead of bacteria. The tubes were vortexed and incubated at 37° C. for 24 hours. A blank was used to adjust the spectrophotometer to zero, and the absorbance at 530 nm ([…]) was recorded. Results were reported as percent growth relative to control, calculated as ([…] sample/[…] control)×100. This method dilutes the sample concentration by a factor of 10. Testing was repeated for three replicates of the samples.
Compound,Elution profile (qualitative) [1],"MIC ([2]; Pseudomonas aeruginosa, ATCC27317, read-out: minimum inhibitory concentration (MIC))",minimum inhibitory concentration (MIC) [2]
"CN[C@H](CC(C)C)C(=O)N[C@H]1C(=O)N[C@@H](CC(N)=O)C(=O)N[C@H]2C(=O)N[C@H]3C(=O)N[C@H](C(=O)N[C@H](C(=O)O)c4cc(O)cc(O)c4-c4cc3ccc4O)[C@H](O)c3ccc(c(Cl)c3)Oc3cc2cc(c3O[C@@H]2O[C@H](CO)[C@@H](O)[C@H](O)[C@H]2O[C@H]2C[C@](C)(N)[C@H](O)[C@H](C)O2)Oc2ccc(cc2Cl)[C@H]1O [Vancomycin™, Vancomycin]",burst of antibiotic in hour one,,
"NCC[C@H](O)C(=O)N[C@@H]1C[C@H](N)[C@@H](O[C@H]2O[C@H](CN)[C@@H](O)[C@H](O)[C@H]2O)[C@H](O)[C@H]1O[C@H]1O[C@H](CO)[C@@H](O)[C@H](N)[C@H]1O [Amikacin™, Amikacin]",peak at hour one and decrease exponentially,4 µg/mL,
Gentamicin [Gentamicin™],peak at hour one and decrease exponentially,,4.0 µg/mL
